Where two headings read alike, the source gives them in different places.
How the values were obtained:
delta opioid receptor = target: T1, delta opioid receptor (Mus musculus, UniProt P32300); assay: [35S]GTPγS binding assay in NG108-15 cell membrane; format: biochemical
T1 construct: host or cells: NG108-15 cells (membranes, purchased)
Method: NG108-15 cell membranes were purchased from Applied Cell Sciences (Rockville, Md.). An 8 mg/mL portion of membrane protein was suspended in 10 mM TRIS-HC pH 7.2, 2 mM EDTA, 10% sucrose.
Membranes were maintained at 4-8° C. A 1 mL portion of membranes was added into 10 mL cold binding assay buffer. The assay buffer contained 50 mM Tris, pH 7.6, 5 mM MgCl2, 100 mM NaCl, 1 mM DTT and 1 mM EGTA. The membrane suspension was homogenized with a Polytron for 2 times and centrifuged at 3000 rpm for 10 min. The supernatent was then centrifuged at 18,000 rpm for 20 min. The pellet was saved in a tube and 10 ml assay buffer was added into the tube. The pellet and buffer were mixed with a Polytron.
The pellet membranes (75 μg/ml) were preincubated with SPA (10 mg/ml) at 25° C. for 45 min in the assay buffer. […] GTPγS in the same Tris buffer containing 100 μM GDP in total volume of 200 μl. Increasing concentrations of receptor agonists were used to stimulate [^35S] GTPγS binding. The basal binding was tested in the absent agonists and no specific binding was tested in the present 10 μM unlabeled GTPγS. The data were analyzed on a Top counter.
% of Basal=(stimulate−non specific)*100/(basal−non specific). EC50 values are calculated using a Prism program.

[1] = target: T2, Rat brain mu opioid receptor (Rattus norvegicus, UniProt P33535); assay: Rat brain mu opioid receptor binding assay ([3H]DAMGO)
T2 construct: from tissue; host or cells: forebrain of male Sprague Dawley rats
T2 sequence (P33535 whole entry): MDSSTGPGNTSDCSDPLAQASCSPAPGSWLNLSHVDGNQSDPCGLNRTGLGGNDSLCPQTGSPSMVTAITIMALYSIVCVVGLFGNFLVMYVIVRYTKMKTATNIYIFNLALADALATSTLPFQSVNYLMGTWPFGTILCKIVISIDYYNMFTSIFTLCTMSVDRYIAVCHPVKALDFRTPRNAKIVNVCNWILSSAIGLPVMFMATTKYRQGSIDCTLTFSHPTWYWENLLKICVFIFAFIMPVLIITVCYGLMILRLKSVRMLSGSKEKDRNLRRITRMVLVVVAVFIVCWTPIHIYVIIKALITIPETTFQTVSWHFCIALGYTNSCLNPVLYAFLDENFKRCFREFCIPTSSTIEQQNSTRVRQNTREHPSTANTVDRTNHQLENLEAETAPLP
Method: • Procedure: Male, Sprague Dawley (150-250 g, VAF, Charles River, Kingston, N.Y.) are killed by CO2, and their brains removed and placed immediately in ice cold Tris HCl buffer (50 mM, pH 7.4). The forebrains are separated from the remainder of the brain by a coronal transection, beginning dorsally at the colliculi and passing ventrally through the midbrain-pontine junction. After dissection, the forebrains are homogenized in Tris buffer in a Teflon®-glass homogenizer. The homogenate is diluted to a concentration of 1 g of forebrain tissue per 80 mL Tris and centrifuged at 39,000×g for 10 min. The pellet is resuspended in the same volume of Tris buffer containing 5 mM MgCl2 with several brief pulses from a Polytron homogenizer. This particulate preparation is used for the mu-opioid binding assays. […] Kd and Ki values are calculated using GraphPad PRISM data analysis program.

[2] = target: T3, Rat brain delta opioid receptor (Rattus norvegicus, UniProt P33533); assay: Rat brain delta opioid receptor binding; details: rDOR Ki
T3 construct: from tissue; host or cells: rat brain
T3 sequence (P33533 whole entry): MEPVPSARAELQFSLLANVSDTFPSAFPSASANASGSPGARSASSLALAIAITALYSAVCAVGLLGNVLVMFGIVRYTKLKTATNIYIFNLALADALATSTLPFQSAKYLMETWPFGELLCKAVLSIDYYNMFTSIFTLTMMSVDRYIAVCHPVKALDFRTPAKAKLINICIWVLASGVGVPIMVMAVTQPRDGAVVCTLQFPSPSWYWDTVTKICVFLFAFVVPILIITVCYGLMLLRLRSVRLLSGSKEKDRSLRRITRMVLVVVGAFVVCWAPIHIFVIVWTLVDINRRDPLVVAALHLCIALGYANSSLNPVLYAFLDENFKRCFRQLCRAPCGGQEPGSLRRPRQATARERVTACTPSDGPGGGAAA

[3] = target: T4, human delta opioid receptor (Homo sapiens, UniProt P41143); assay: [35S]GTPγS binding assay in CHO-hδ cell membranes; format: biochemical; details: human delta opioid receptor GTPγS functional assay; read-out: hDOR GTPγS EC50
T4 construct: purchased Receptor Biology, Inc. (Baltimore, Md.); host or cells: CHO cells expressing the human delta receptor (membranes)
T4 sequence (P41143 whole entry): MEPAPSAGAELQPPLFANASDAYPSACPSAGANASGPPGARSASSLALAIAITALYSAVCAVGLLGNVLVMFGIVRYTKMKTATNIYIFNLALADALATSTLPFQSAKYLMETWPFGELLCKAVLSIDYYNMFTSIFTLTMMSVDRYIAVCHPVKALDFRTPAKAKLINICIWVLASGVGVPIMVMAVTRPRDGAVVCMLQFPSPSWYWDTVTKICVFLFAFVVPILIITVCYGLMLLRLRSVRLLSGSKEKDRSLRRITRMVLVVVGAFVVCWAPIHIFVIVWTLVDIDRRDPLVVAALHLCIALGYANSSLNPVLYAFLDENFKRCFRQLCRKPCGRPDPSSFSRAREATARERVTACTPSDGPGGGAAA
Method: CHO-hδ cell membranes are purchased from Receptor Biology, Inc. (Baltimore, Md.). 10 mg/ml of membrane protein is suspended in 10 mM TRIS-HC pH 7.2, 2 mM EDTA, 10% sucrose.
(§1) Membranes are maintained at 4-8° C. 1 ml of membranes is added into 15 ml cold binding assay buffer. The assay buffer contained 50 mM HEPES, pH 7.6, 5 mM MgCl2, 100 mM NaCl, 1 mM DTT and 1 mM EDTA. The membrane suspension is homogenized with a Polytron 2 times and centrifuged at 3000 rpm for 10 min. The supernatant is then centrifuged at 18,000 rpm for 20 min. The pellet is saved in a tube and 10 ml assay buffer is added into the tube. The pellet and buffer are mixed with a Polytron.
(§2) The pellet membranes (20 μg/ml) are preincubated with SPA (10 mg/ml) at 25° C. for 45 min in the assay buffer. The SPA (5 mg/ml) coupled with membranes (10 μg/ml) is then incubated with 0.5 nM [^35S]GTPgS in the same HEPES buffer containing 50 μM GDP in total volume of 200 μl. Increasing concentrations of receptor agonists are used to stimulate [^35S]GTPgS binding. The basal binding is tested in the absence of agonists and non-specific binding is tested in the presence of 10 μM unlabeled GTP S. The data are analyzed on a Top counter.

human mu opioid receptor = target: T5, human mu opioid receptor (Homo sapiens, UniProt P35372); assay: [35S]GTPγS binding assay in CHO-hμ cell membranes; format: biochemical; details: inhibition relative to 1 uM DAMGO, read-out: hMOR GTPγS % I @10 μM
T5 construct: purchased Receptor Biology, Inc. (Baltimore, Md.); host or cells: CHO cells expressing the human mu receptor (membranes)
T5 sequence (P35372 whole entry): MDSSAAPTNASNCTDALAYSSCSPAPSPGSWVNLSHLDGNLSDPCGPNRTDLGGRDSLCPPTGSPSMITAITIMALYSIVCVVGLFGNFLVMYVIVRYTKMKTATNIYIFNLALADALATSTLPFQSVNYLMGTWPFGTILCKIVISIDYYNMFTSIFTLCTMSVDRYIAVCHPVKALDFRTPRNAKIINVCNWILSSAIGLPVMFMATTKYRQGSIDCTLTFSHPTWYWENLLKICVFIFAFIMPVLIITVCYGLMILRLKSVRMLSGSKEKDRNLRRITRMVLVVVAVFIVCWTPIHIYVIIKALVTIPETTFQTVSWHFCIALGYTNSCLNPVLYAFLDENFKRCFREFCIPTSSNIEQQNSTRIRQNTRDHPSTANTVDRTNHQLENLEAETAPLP
Method: CHO-hμ cell membranes are purchased from Receptor Biology, Inc. (Baltimore, Md.). About 10 mg/ml of membrane protein is suspended in 10 mM TRIS-HC pH 7.2, 2 mM EDTA, 10% sucrose.
as §1, with “assay buffer contains 50 mM” for “assay buffer contained 50 mM”, “is added to the tube.” for “is added into the tube.”
as §2, with “25 C′” for “25° C.”, “present” for “presence of”, “GTPγS.” for “GTP S.”
% of Basal=(stimulate−non-specific)*100/(basal−non specific). % inhibition value values are calculated using a formula, % Inhibition=(% Basal of 1 uM DAMGO−% Basal of compound)*100/(% Basal of 1 uM DAMGO−100)

[4] = DOR GTPγS EC50, delta opioid receptor GTPγS functional assay

T1 sequence (P32300 whole entry): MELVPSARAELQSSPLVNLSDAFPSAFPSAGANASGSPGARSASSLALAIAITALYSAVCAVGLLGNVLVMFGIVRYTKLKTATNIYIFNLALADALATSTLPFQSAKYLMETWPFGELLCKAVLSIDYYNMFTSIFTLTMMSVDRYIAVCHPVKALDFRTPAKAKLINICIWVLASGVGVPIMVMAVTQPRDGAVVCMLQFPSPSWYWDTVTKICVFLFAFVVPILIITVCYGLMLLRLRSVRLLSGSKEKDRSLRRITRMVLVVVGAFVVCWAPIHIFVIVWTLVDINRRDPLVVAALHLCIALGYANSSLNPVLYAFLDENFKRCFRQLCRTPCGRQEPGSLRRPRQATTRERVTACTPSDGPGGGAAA

In the case of `CCNC(=O)c1ccc2c(c1)Oc1ccccc1C2=C1CC2CCC(C1)N2` (single isomer, unassigned) [Compound 55], the EC50 (delta opioid receptor; delta opioid receptor GTPγS functional assay, read-out: DOR GTPγS EC50) is reported as over 1000 nM, the Ki ([1]; read-out: rMOR Ki) is reported as 1860 nM and the Ki [2] is reported as 66.5 nM.
Molecule `CCN(CC)C(=O)c1ccc2c(c1)Sc1ccccc1C2=C1CC2CCC(C1)N2` (single isomer, unassigned) [Compound 61, 9-(8-Aza-bicyclo[3.2.1]oct-3-ylidene)-9H-thioxanthene-3-carboxylic acid diethylamide] has an EC50 (delta opioid receptor; [4]) of 188 nM, a Ki ([1]; rMOR Ki) of 7180 nM and a Ki [2] of 133 nM.
For `CCN(CC)C(=O)c1ccc2c(c1)Sc1ccccc1C2=C1CC2CCC(C1)N2` (single isomer, unassigned) [Compound 62, 9-(8-Aza-bicyclo[3.2.1]oct-3-ylidene)-9H-thioxanthene-3-carboxylic acid diethylamide], the EC50 (delta opioid receptor; [4]) was 8.35 nM, the Ki ([1]; rMOR Ki) was 739 nM and the Ki [2] was 2.96 nM.
In the case of `CCN(CC)C(=O)c1ccc2c(c1)Sc1ccccc1C2=C1CC2CCC(C1)N2Cc1ccc2c(c1)OCO2` [Compound 47, 9-(8-Benzo[1,3]dioxol-5-ylmethyl-8-aza-bicyclo[3.2.1]oct-3-ylidene)-9H-thioxanthene-3-carboxylic acid diethylamide], the Ki ([1]; rMOR Ki) is reported as 48.3 nM, the Ki [2] is reported as 4.5 nM and the EC50 [3] is reported as 125 nM. The inhibition at 10 µM (human mu opioid receptor) was 59.2%.
Work on `CCN(CC)C(=O)c1ccc2c(c1)Oc1c(OC)cccc1C2=C1CC2CCC(C1)N2` [Compound 68, 9-(8-Aza-bicyclo[3.2.1]oct-3-ylidene)-5-methoxy-9H-xanthene-3-carboxylic acid diethylamide] yielded an EC50 (delta opioid receptor; [4]) of 22 nM, a Ki ([1]; rMOR Ki) of 1290 nM and a Ki [2] of 0.74 nM.
In the case of `CCN(CC)C(=O)c1ccc2c(c1)Oc1ccc(F)cc1C2=C1CC2CCC(C1)N2` [Compound 69], the EC50 (delta opioid receptor; [4]) is reported as 126 nM, the Ki ([1]; rMOR Ki) is reported as 5830 nM and the Ki [2] is reported as 4.99 nM.
With `CCN(CC)C(=O)c1ccc2c(c1)Oc1cc(O)ccc1C2=C1CC2CCC(C1)N2` [Compound 76, 9-(8-Aza-bicyclo[3.2.1]oct-3-ylidene)-6-hydroxy-9H-xanthene-3-carboxylic acid diethylamide] the EC50 (delta opioid receptor; [4]) was 5.91 nM, the Ki ([1]; rMOR Ki) was 285 nM and the Ki [2] was 1.7 nM.
`CC(C)N(C)C(=O)c1ccc2c(c1)Oc1ccccc1C2=C1CC2CCC(C1)N2` [Compound 92, 9-(8-Aza-bicyclo[3.2.1]oct-3-ylidene)-9H-xanthene-3-carboxylic acid isopropyl-methyl-amide] was tested, and the EC50 (delta opioid receptor; [4]) was 55.3 nM, the Ki ([1]; rMOR Ki) was 2.09 nM and the Ki [2] was 2.09 nM.
In the case of `CCN(CC)C(=O)c1ccc2c(c1)Oc1c(Br)cccc1C2=C1CC2CCC(C1)N2` [Compound 94, 9-(8-Aza-bicyclo[3.2.1]oct-3-ylidene)-5-bromo-9H-xanthene-3-carboxylic acid diethylamide], the EC50 (delta opioid receptor; [4]) is reported as 14.1 nM, the Ki ([1]; rMOR Ki) is reported as 674 nM and the Ki [2] is reported as 2.28 nM.
`CCN(CC)C(=O)c1ccc2c(c1)Oc1c(cccc1-c1ccncc1)C2=C1CC2CCC(C1)N2` [Compound 96, 9-(8-Aza-bicyclo[3.2.1]oct-3-ylidene)-5-pyridin-4-yl-9H-xanthene-3-carboxylic acid diethylamide] showed an EC50 (delta opioid receptor; [4]) of 35.3 nM, a Ki ([1]; rMOR Ki) of 4220 nM and a Ki [2] of 1.69 nM.
`CCN(CC)C(=O)c1ccc2c(c1)Oc1c(cccc1-c1ccoc1)C2=C1CC2CCC(C1)N2` [Compound 97, 9-(8-Aza-bicyclo[3.2.1]oct-3-ylidene)-5-furan-3-yl-9H-xanthene-3-carboxylic acid diethylamide] gave an EC50 (delta opioid receptor; [4]) of 13.3 nM, a Ki ([1]; rMOR Ki) of 1810 nM and a Ki [2] of 1.78 nM.
In the case of `CCN(CC)C(=O)c1ccc2c(c1)Oc1c(cccc1-c1ccsc1)C2=C1CC2CCC(C1)N2` [Compound 99, 9-(8-Aza-bicyclo[3.2.1]oct-3-ylidene)-5-thiophen-3-yl-9H-xanthene-3-carboxylic acid diethylamide], the EC50 (delta opioid receptor; [4]) is reported as 12.5 nM, the Ki ([1]; rMOR Ki) is reported as 3490 nM and the Ki [2] is reported as 19.3 nM.
For `CCN(CC)C(=O)c1ccc2c(c1)Oc1c(O)cccc1C2=C1CC2CCC(C1)N2` [Compound 100, 9-(8-Aza-bicyclo[3.2.1]oct-3-ylidene)-5-hydroxy-9H-xanthene-3-carboxylic acid diethylamide], the EC50 (delta opioid receptor; [4]) was 0.452 nM, the Ki ([1]; rMOR Ki) was 5.85 nM and the Ki [2] was 0.274 nM.

Source: US7982042B2, “Thiozanthene derivatives as delta-opioid modulators” (priority 2003, dated 2011)
